Measurements from patent publication US20040241184A1, “Fermentation product of cyptoporous volvatus and its preparation method and use” (priority 2001, published 2004).

Experiments:
[1] = system: cavy cough caused by citric acid; test: Cough reverberation of cavy caused by citric acid; type: in vivo; conditions: 10 mg · kg^−1, once daily 3 days
Procedure: Put cavies into a volume marked box to stabilize for 1 min, and then atomize 15% citric acid for 2 min by ultrasonic nebulizer. From then on, select the cavies that cough more than 10 times in minutes. Divide the selected cavies into 5 groups in terms of their cough times, and then treat them respectively with testing medicine sample CVFS 0.3 g/kg, 0.9 g/kg, 2.7 g/kg, positive control codeine phosphate (10 mg/kg), and the negative control group is administered by intragater method with 10 ml·kg^−1 physiological saline solution (i.g), one time every day, altogether 3 days. 1 hour after the last administration of medicine, induce cough by above method and count the cough times in 10 min from the beginning of atomization.

[2] = system: sensitized cavies attacked by antigen (egg albumin); test: Inflammatory cells in bronchial lung lavage solution of sensitized cavies after antigen attack (Table 3); type: in vivo, cavy; conditions: 0.5 mg/kg Ip, 10 days
Procedure: 2% egg albumin gel solution is used to cause allergy and is subcutaneously injected (0.05 mL each part) in ten parts of two retral soles, groin, waist, back, neck and armpits of each cavy. 0.5 mL 2% egg albumin gel solution is intraperitoneally injected at the same time. The medicine samples are injected since the tenth day after allergy has been caused. The testing samples of A2, B2, C2 or physiological saline solution (NS, 0.5 mL/kg) or dexamethasone (DXM, […]) are intraperitoneal injected respectively; A1, B1 (5 g/kg), C1 (2.5 g/kg) are administered by intragaster. The above testing samples are administered 10 days. A1: fermentation mycelium powder; […]: culture supernatant concentrated fluid; C1: sporophore powder; A2: water extract of fermentation mycelium; B2: fermentation concentrated fluid; C2: water extract of sporophore powder; dexamethasone sodium phosphate. Asthma as a chronic airway inflammatory disease is characterized by significant increase of eosinophils of bronchus and lung. Eosinophils can release tens of inflammatory substances, such as cytokines, leukotriene and prostapar etc., which may cause inflammation, edema, injury and thickening of airway, make narrow airway and therefore lead to dyspnea. Thus, eosinophil is considered as a target of screening drugs for relieving cough at present. The medicine, which can inhibit inflammation of airway eosinophils, would probably be used for preventing and treating asthma.

[3] = system: sensitized cavies attacked by antigen (egg albumin); test: Elementarily separated substances: inflammatory cells in bronchial lung lavage solution of sensitized cavies after antigen attack (Table 5); type: in vivo, cavy; conditions: 0.5 mg/kg intraperitoneal, 10 days
Procedure: 2% egg albumin gel solution is used to cause allergy. The medicine samples are administered since the tenth day after allergy has been caused. The cavies are administered by introgaster method with this tested medicine sample or with physiological saline solution (10 ml/kg); or administered by intraperitoneal method with dexamethasone (0.5 mg/kg). All of the testing medicine samples are administered 10 days. A: total polysaccharide extracted from fermentation product; B: total alkaloids extracted from fermentation product; C: volatile oil extracted from fermentation product; D: organic acid extracted from fermentation product; E: water extract of fermentation product; positive control: dexamethasone.

[4] = system: sensitized cavies attacked by antigen (egg albumin); test: Example 4 polysaccharide: inflammatory cells in bronchial lung lavage solution of sensitized cavies after antigen attack (Table 7); type: in vivo, cavy; conditions: 0.5 mg/kg
Procedure: Take 20 g fermentation mycelial powder, add in 400 mL distilled water, boil and extract for 30 min. After filtration, add another 200 mL distilled water to the residue, then repeat the same steps. Mix the filtrate of the two times and add in 100 mL culture supernatant fluid. Then put the mixture into dialysis bag of retention molecular weight 10,000 Dalton and dialyze 10 mM pH6.0 buffer solution of HAc-NaAc 2000 mL for three days to remove small molecular substances in the solution. Change the penetrated liquid 1 time each day.
Then concentrate the residue to 100 mL. On animal test, the polysaccharide affects inflammatory cells in bronchial lung lavage solution of sensitized cavies after being attacked by antigen. (The results are described in Table 7.) 2% egg albumin gel solution is used to cause allergy and is subcutaneous injected (0.05 mL each part) in ten parts of two retral soles, groin, waist, back, neck and armpits of each cavy. 0.5 mL 2% egg albumin gel solution is intraperitoneal injected at the same time. The samples are injected since the tenth day after allergy has been caused.

[5] = system: sensitized cavies attacked by antigen (1% egg albumin); test: Pulmonary mechanical function (lung resistance RL) of sensitized cavies after antigen attack; type: in vivo, cavy; conditions: 7 mg/kg×1 d; P<0.05˜0.01 in all time phases during 10 min after antigen attack
Procedure: Suppose airway resistance (RL) is 1005 before being attacked by antigen. Compared with the model group: *P<0.05, **P <0.001, ***P<0.001.
Each cavy is sensitized by being injected 10 mg egg albumin into the muscles of its crus. 3-4 weeks later, antigen attack (1% egg albumin) is given and the caused changes of lung resistance (RL) are observed to evaluate the activity of the samples.

COc1ccc2c3c1O[C@H]1[C@@H](O)C=C[C@H]4[C@@H](C2)N(C)CC[C@@]341 [Codeine phosphate, codeine phosphate]
Cough times (in 10 min) [1]: 9.4 ± 8.0 | Inhibition of cough times % [1]: 67.4%

C[C@@H]1C[C@H]2[C@@H]3CCC4=CC(=O)C=C[C@]4(C)[C@@]3(F)[C@@H](O)C[C@]2(C)[C@@]1(O)C(=O)CO [DXM, dexamethasone]
Eosinophils [2]: 2.60 ± 3.9 % | Leukocyte total number [2]: 241.6 ± 179.2 Number/mm^3 | Lymphocyte [2]: 68.4 ± 18.4 % | Neutrophil [2]: 28.9 ± 16.6% | Eosinophils [3]: 0.00 ± 0.00 % | Leukocyte total number [3]: 330.5 ± 254.3 Number/mm3 | Lymphocyte [3]: 87.70 ± 18.73 % | Neutrophil [3]: 12.30 ± 18.74% | Eosinophil [4]: 0.00 ± 0.00 % | Leukocyte counts [4]: 330.5 ± 254.3 Number/mm3 | Lymphocyte [4]: 87.70 ± 18.73 % | Neutrophil [4]: 12.30 ± 18.74%

CC(C)(C)NCC(O)c1ccc(O)c(CO)c1 (stereo not drawn) [salbutamol]
inhibition of increase of lung resistance (RL) caused by antigen attack [5]: evident inhibition
